Laboratory results from patent publication US8455475B2 (Gruenenthal GmbH, priority 2009, dated 2013).

molecular target: T1, rat B1R (bradykinin receptor 1) (Rattus norvegicus, UniProt P97583); test: FLIPR Ca2+ assay (Fluo-4) on CHO K1 cells stably transfected with the B1R gene of the rat (rB1R cells): % inhibition at 10 μM / IC50, agonist Des-Arg9-bradykinin; type: cell-based; settings: CHO-K1, rat B1R
T1 construct: expressed in transfected cells; host or cells: CHO K1 cells
T1 sequence (P97583 1-337): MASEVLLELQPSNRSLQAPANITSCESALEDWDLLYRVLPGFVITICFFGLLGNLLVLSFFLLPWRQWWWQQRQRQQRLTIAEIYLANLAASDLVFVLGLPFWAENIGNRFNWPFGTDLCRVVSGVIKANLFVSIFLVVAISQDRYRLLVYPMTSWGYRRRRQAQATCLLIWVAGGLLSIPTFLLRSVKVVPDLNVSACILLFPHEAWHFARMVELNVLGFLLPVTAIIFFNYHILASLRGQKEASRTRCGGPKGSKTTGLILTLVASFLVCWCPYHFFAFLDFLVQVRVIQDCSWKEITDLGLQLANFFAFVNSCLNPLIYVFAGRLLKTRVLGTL
How it was run: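 Stable CHO K1 lines, Fluo-4 dye, probenecid-containing buffer. Cpd 10 μM or dose range, 10–20 min, then EC80 agonist (h: Lys-Des-Arg9-BK; r: Des-Arg9-BK). Readout peak FC; % inhibition vs max; IC50 from n=2–3, N≥2.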

Compared with N#Cc1ccc(CN2CCC3(CC2)CCN(C(=O)c2ccc4c(c2)C(NC(=O)c2cc(Cl)ccc2F)CC4)C3)cc1 (centres unmarked) [IND_CC-650, 5-Chloro-N-[6-[8-[(4-cyano-phenyl)-methyl]-2,8-diazaspiro[4.5]decane-2-carbonyl]-2,3-dihydro-1H-inden-1-yl]-2-fluoro-benzamide], N#Cc1cccc(CN2CCC3(CC2)CCN(C(=O)c2ccc4c(c2)C(NC(=O)c2cc(Cl)ccc2F)CC4)C3)c1 (centres unmarked) [IND_CC-651, 5-Chloro-N-[6-[8-[(3-cyano-phenyl)-methyl]-2,8-diazaspiro[4.5]decane-2-carbonyl]-2,3-dihydro-1H-inden-1-yl]-2-fluoro-benzamide] is higher in inhibition at 10 µM: 54% for the first, 76% for the second.

First: O=C(NC1CCc2ccc(C(=O)N3CCC4(CCN(Cc5csnn5)CC4)CC3)cc21)c1cc(C(F)(F)F)ccc1Cl (centres unmarked) [IND_CC-663, 2-Chloro-N-[6-[9-([1,2,3]thiadiazol-4-yl-methyl)-3,9-diazaspiro[5.5]undecane-3-carbonyl]-2,3-dihydro-1H-inden-1-yl]-5-(trifluoromethyl)-benzamide]
Second: Cn1cccc1CN1CCC2(CC1)CCN(C(=O)c1ccc3c(c1)C(NC(=O)c1cc(C(F)(F)F)ccc1Cl)CC3)CC2 (centres unmarked) [IND_CC-643, 2-Chloro-N-[6-[9-[(1-methyl-1H-pyrrol-2-yl)-methyl]-3,9-diazaspiro[5.5]-undecane-3-carbonyl]-2,3-dihydro-1H-inden-1-yl]-5-(trifluoromethyl)benzamide]
The inhibition at 10 µM of the first is higher: 85% for the first, 78% for the second.

Compared with O=C(NC1CCc2ccc(C(=O)N3CCC4(CCN(Cc5c[nH]cn5)CC4)C3)cc21)c1cc(C(F)(F)F)ccc1Cl (centres unmarked) [IND_CC-631, 2-Chloro-N-[6-[8-(1H-imidazol-4-yl-methyl)-2,8-diazaspiro[4.5]decane-2-carbonyl]-2,3-dihydro-1H-inden-1-yl]-5-(trifluoromethyl)-benzamide], O=C(NC1CCc2ccc(C(=O)N3CCC4(CCN(Cc5c(F)cccc5Cl)CC4)CC3)cc21)c1cc(C(F)(F)F)ccc1Cl (centres unmarked) [IND_CC-670, 2-Chloro-N-[6-[9-[(2-chloro-6-fluoro-phenyl)-methyl]-3,9-diazaspiro[5.5]-undecane-3-carbonyl]-2,3-dihydro-1H-inden-1-yl]-5-(trifluoromethyl)benzamide] is higher in inhibition at 10 µM: 57% for the first, 67% for the second.

First: O=C(NC1CCc2ccc(C(=O)N3CCC4(CCN(Cc5c(F)cccc5F)CC4)CC3)cc21)c1ccccc1Cl (centres unmarked) [IND_CC-513, 2-Chloro-N-[6-[9-[(2,6-difluoro-phenyl)-methyl]-3,9-diazaspiro[5.5]undecane-3-carbonyl]-2,3-dihydro-1H-inden-1-yl]-benzamide]
Second: O=C(NC1CCc2ccc(C(=O)N3CCC4(CCN(Cc5c(F)cccc5F)CC4)CC3)cc21)c1cc(C(F)(F)F)ccc1Cl (centres unmarked) [IND_CC-644, 2-Chloro-N-[6-[9-[(2,6-difluoro-phenyl)-methyl]-3,9-diazaspiro[5.5]undecane-3-carbonyl]-2,3-dihydro-1H-inden-1-yl]-5-(trifluoromethyl)-benzamide]
The inhibition at 10 µM of the first is higher: 98% for the first, 59% for the second.

Going from N#Cc1ccccc1CN1CCC2(CC1)CCN(C(=O)c1ccc3c(c1)C(NC(=O)c1ccccc1Cl)CC3)C2 (centres unmarked) [IND_CC-563, 2-Chloro-N-[6-[8-[(2-cyano-phenyl)-methyl]-2,8-diazaspiro[4.5]decane-2-carbonyl]-2,3-dihydro-1H-inden-1-yl]-benzamide] to CN(C(=O)c1ccccc1Cl)C1CCc2ccc(C(=O)N3CCC4(CCN(Cc5ccccc5C#N)CC4)C3)cc21 (centres unmarked) [IND_CC-505, 2-Chloro-N-[6-[8-[(2-cyano-phenyl)-methyl]-2,8-diazaspiro[4.5]decane-2-carbonyl]-2,3-dihydro-1H-inden-1-yl]-N-methyl-benzamide], the inhibition at 10 µM falls from 92% to 67%.

Compared with O=C(NC1CCc2ccc(C(=O)N3CCC4(CCN(c5ccncc5)CC4)C3)cc21)C1CCCC1 (centres unmarked) [IND_CC-394, N-[6-(8-Pyridin-4-yl-2,8-diazaspiro[4.5]decane-2-carbonyl)-2,3-dihydro-1H-inden-1-yl]-cyclopentanecarboxylic acid amide], O=C(NC1CCc2ccc(C(=O)N3CCC4(CC3)CCN(c3ccncc3)C4)cc21)C1CCCCC1 (centres unmarked) [IND_CC-366, N-[6-(2-Pyridin-4-yl-2,8-diazaspiro[4.5]decane-8-carbonyl)-2,3-dihydro-1H-inden-1-yl]-cyclohexanecarboxylic acid amide] is higher in inhibition at 10 µM: 103% for the first, 104% for the second.

Going from Cc1cccc(Cl)c1C(=O)NC1CCc2ccc(C(=O)N3CCC4(CCN(CCc5ccccc5)CC4)C3)cc21 (centres unmarked) [IND_CC-769, 2-Chloro-6-methyl-N-[6-(8-phenethyl-2,8-diazaspiro[4.5]decane-2-carbonyl)-2,3-dihydro-1H-inden-1-yl]-benzamide] to Cc1cccc(Cl)c1C(=O)NC1CCc2ccc(C(=O)N3CCC4(CCN(Cc5ccc6c(c5)nnn6C)CC4)C3)cc21 (centres unmarked) [IND_CC-766, 2-Chloro-6-methyl-N-[6-[8-[(1-methyl-1H-benzotriazol-5-yl)-methyl]-2,8-diazaspiro[4.5]decane-2-carbonyl]-2,3-dihydro-1H-inden-1-yl]-benzamide], the inhibition at 10 µM rises from 91% to 93%.

First: O=C(c1ccc2c(c1)C(N(C(=O)c1ccccc1Cl)C1CC1)CC2)N1CCC2(CCN(S(=O)(=O)c3ccc(F)cc3F)CC2)C1 (centres unmarked) [IND_CC-616, 2-Chloro-N-cyclopropyl-N-[6-[8-[(2,4-difluoro-phenyl)sulfonyl]-2,8-diazaspiro[4.5]decane-2-carbonyl]-2,3-dihydro-1H-inden-1-yl]-benzamide]
Second: O=C(NC1CCc2ccc(C(=O)N3CCC4(CC3)CCN(S(=O)(=O)c3ccc(F)cc3F)CC4)cc21)c1ccccc1Cl (centres unmarked) [IND_CC-609, 2-Chloro-N-[6-[9-[(2,4-difluoro-phenyl)sulfonyl]-3,9-diazaspiro[5.5]undecane-3-carbonyl]-2,3-dihydro-1H-inden-1-yl]-benzamide]
The inhibition at 10 µM of the first is lower: 81% for the first, 101% for the second.

Compared with O=C(NC1CCc2ccc(C(=O)N3CCC4(CCN(Cc5ccc(F)cc5F)CC4)CC3)cc21)c1c(F)cccc1Cl (centres unmarked) [IND_CC-791, 2-Chloro-N-[6-[9-[(2,4-difluoro-phenyl)-methyl]-3,9-diazaspiro[5.5]undecane-3-carbonyl]-2,3-dihydro-1H-inden-1-yl]-6-fluoro-benzamide], O=C(NC1CCc2ccc(C(=O)N3CCC4(CCN(C(=O)Nc5ccc(F)cc5F)CC4)CC3)cc21)c1ccccc1Cl (centres unmarked) [IND_CC-711, 3-[3-[(2-Chloro-benzoyl)amino]-2,3-dihydro-1H-indene-5-carbonyl]-N-(2,4-difluoro-phenyl)-3,9-diazaspiro[5.5]undecane-9-carboxylic acid amide] is higher in inhibition at 10 µM: 91% for the first, 94% for the second.

First: O=C(NC1CCc2ccc(C(=O)N3CCC4(CCN(Cc5ccc6ncccc6c5)CC4)C3)cc21)c1cccc(Cl)c1Cl (centres unmarked) [IND_CC-744, 2,3-Dichloro-N-[6-[8-(quinolin-6-yl-methyl)-2,8-diazaspiro[4.5]decane-2-carbonyl]-2,3-dihydro-1H-inden-1-yl]-benzamide]
Second: Cc1cc(C(=O)N2CCC3(CCN(C(=O)c4ccc5c(c4)C(NC(=O)c4ccccc4Cl)CC5)C3)CC2)n(C(C)(C)C)n1 (centres unmarked) [IND_CC-579, N-[6-[8-(2-tert-Butyl-5-methyl-2H-pyrazole-3-carbonyl)-2,8-diazaspiro-[4.5]decane-2-carbonyl]-2,3-dihydro-1H-inden-1-yl]-2-chloro-benzamide]
The inhibition at 10 µM of the first is higher: 71% for the first, 57% for the second.

First: N#Cc1ccc(C(=O)N2CCC3(CC2)CCN(C(=O)c2ccc4c(c2)C(NC(=O)c2ccccc2Cl)CC4)CC3)cc1 (centres unmarked) [IND_CC-596, 2-Chloro-N-[6-[9-(4-cyano-benzoyl)-3,9-diazaspiro[5.5]undecane-3-carbonyl]-2,3-dihydro-1H-inden-1-yl]-benzamide]
Second: Cc1cc(C(=O)N2CCC3(CCN(C(=O)c4ccc5c(c4)C(NC(=O)c4ccccc4Cl)CC5)CC3)CC2)n(C(C)(C)C)n1 (centres unmarked) [IND_CC-602, N-[6-[9-(2-tert-Butyl-5-methyl-2H-pyrazole-3-carbonyl)-3,9-diazaspiro-[5.5]undecane-3-carbonyl]-2,3-dihydro-1H-inden-1-yl]-2-chloro-benzamide]
The inhibition at 10 µM of the first is lower: 94% for the first, 95% for the second.

Going from CN(C1CCc2ccc(C(=O)N3CCC4(CC3)CCN(c3ccncc3)CC4)cc21)S(=O)(=O)c1ccc(C(F)(F)F)cc1Cl (centres unmarked) [IND_CC-320, 2-Chloro-N-methyl-N-[6-(9-pyridin-4-yl-3,9-diazaspiro[5.5]undecane-3-carbonyl)-2,3-dihydro-1H-inden-1-yl]-4-(trifluoromethyl)-benzenesulfonic acid amide] to O=C(NC1CCc2ccc(C(=O)N3CCC4(CCN(c5ccncc5)CC4)C3)cc21)c1cc(Cl)ccc1C(F)(F)F (centres unmarked) [IND_CC-316, 5-Chloro-N-[6-(8-pyridin-4-yl-2,8-diazaspiro[4.5]decane-2-carbonyl)-2,3-dihydro-1H-inden-1-yl]-2-(trifluoromethyl)-benzamide], the inhibition at 10 µM rises from 83% to 100%.

O=C(NC1CCc2ccc(C(=O)N3CCC4(CCN(c5ccncc5)CC4)C3)cc21)c1c(F)cccc1C(F)(F)F (centres unmarked) [IND_CC-378, 2-Fluoro-N-[6-(8-pyridin-4-yl-2,8-diazaspiro[4.5]decane-2-carbonyl)-2,3-dihydro-1H-inden-1-yl]-6-(trifluoromethyl)-benzamide] and O=C(c1ccc2c(c1)C(NS(=O)(=O)Cc1ccccc1F)CC2)N1CCC2(CCN(c3ccncc3)CC2)C1 (centres unmarked) [IND_CC-359, 1-(2-Fluorophenyl)-N-[6-(8-pyridin-4-yl-2,8-diazaspiro[4.5]decane-2-carbonyl)-2,3-dihydro-1H-inden-1-yl]-methanesulfonic acid amide] are the same in inhibition at 10 µM: 104% for the first, 104% for the second.
